{
  "source": "patent US10487089B2",
  "about": "“Imaging agents and methods of identifying same” (The Trustees of the University of Pennsylvania, priority 2014, dated 2019)",
  "key": {"HeLa cells [1]": {"tested_on": "HeLa cells", "assay": "Intracellular photoactivation of 11-E/11-Z to 12 in live HeLa cells", "format": "cell-based", "settings": "200 alternating 150 ms pulses, one phase exponential fit", "text": "A Leica DM4000 spinning disk confocal microscope equipped with a 100×1.4 NA oil immersion objective was used in FIGS. 3A and 3B. In FIG. 3A, two channels were used. The first channel has 444 nm excitation wavelength and 525 nm emission wavelength (emission bandpass filter, bandwidth=36 nm). The second channel has 488 nm excitation wavelength and 632 nm emission wavelength (emission bandpass filter, bandwidth=60 nm). The two channels were used alternatingly to carry out 200 150-ms pulses. In FIG. 46B, selective activation was carried out by short pulse (about 1 second) using a 405 nm laser (CrystaLaser, DL405-050-O) controlled by the iLas2 module in Metamorph. All image processing was done using ImageJ. All curve fitting was done using Prism.\nBy combining the observed photoreaction (FIG. 44A) and the ability to selectively label mitochondria for live cell imaging (FIG. 45A), intracellular photoactivation of 11-E/11-Z was attempted. The roughly 100 nm red-shifted absorbance and emission spectra of 12 compared to 11-E/11-Z allowed for selective excitation of individual species. […] A significant increase in the intensity of […] was achieved after 30 seconds, using 200 total scans (FIG. 46A, 46B). […] Immediately after the first activation, a bright signal was detected at the targeted region (box 1). […]"}, "[2]": {"assay": "Stability of aqueous solution under ambient light (HPLC)", "format": "physicochemical", "settings": "1 mM in water, 25° C., 10 days", "description": "The stability of 1 mM aqueous solution of 11-E/11-Z was assessed under ambient light conditions at 25° C. for 10 days. […] HPLC chromatograms of compounds 11-E/11-Z and 12 can be seen in FIGS. 57 and 58."}, "[3]": {"tested_on": "mito-GFP cell line (GFP localized to the outer mitochondria membrane)", "assay": "Colocalization with GFP-labeled mitochondria in mito-GFP HeLa cells", "format": "cell-based", "description": "For live cell imaging, HeLa cells and HeLa cells expressing a mitochondrial outer membrane targeting domain from Listeria monocytogenes (ActA, C-terminal 47 amino acids) fused to a HaloTag-GFP construct (Ballister et al., 2014, Nat. Commun. 5: 4575) were used. Cells were cultured in a 60 mm culture dish using Life Technologies Dulbecco's Modified Eagle Medium (DMEM) media with phenol red, 10% Fetal Bovine Serum and 1% penicillin-streptomycin at 37° C. in a humidified atmosphere with 5% CO2. The cells were detached with 0.05% trypsin-EDTA and transferred to a 35 mm glass bottom poly-D-lysine coated dish 2-5 days before imaging with about 2 mL of the above-mentioned media. A 5 mM solution of 11-E/11-Z in MiliQ water and a 1 mM solution of MitoTracker Red FM in DMSO were prepared. Two microliter of each solution was mixed with 2 mL new media and added to the cells after the old media was removed. After incubation (3 hours to overnight for 11-E/11-Z and 1 hour for MitoTracker Red FM), the excess dyes were washed twice with non-phenol red DMEM before imaging. The cells were kept in 2 mL non-phenol red DMEM during imaging.\nA Leica TCS SP8 confocal microscope equipped with a 63×/1.4 NA oil immersion objective lens was used in FIG. 2A, 3E, S2, S3, and S4. To selectively observe 11-E/11-Z, the excitation wavelength of 405 nm and the emission wavelength range of 620-650 were used. To selectively observe MitoTracker Red FM, the excitation wavelength of 638 nm and the emission wavelength range of 650-700 were used. To selectively observe GFP, the excitation wavelength of 488 nm and the emission wavelength range of 500-550 were used.\nPhotoproduct 12 is red-shifted in both absorbance and emission by approximately 100 nm while retaining a large Stokes shift of 108 nm (FIG. 44C). […]\nIncubating mito-GFP cells with 11-E/11-Z allowed colocalization to be assessed (FIGS. 45A and 54)."}, "HeLa cells [4]": {"tested_on": "HeLa cells", "assay": "Cytotoxicity studies, Alamar Blue cell viability", "format": "cell-based", "settings": "HeLa cells, 24, 48, and 72 hours; 5 μM 11-E/11-Z, 1 μM MitoTracker Red FM", "description": "In a 96-well plate, HeLa cells were plated at 5,000 cells/well in culture media as described above (50 μL/well) and incubated at 37° C. in a humidified atmosphere with 5% CO2. After 24 hours, cells were treated with 11-E/11-Z (final concentration was 5 μM), MitoTracker Red FM (final concentration was 1 μM), and DMSO (vehicle control for MitoTracker). For wells treated with MitoTracker and DMSO, DMSO concentration was kept at 1%. Untreated cells were used as vehicle control for 11-E/11-Z. Final volumes were 100 μL/well. Cells were incubated at 37° C. in 5% CO2 for 24, 48, or 72 hours. Alamar Blue (10 μL) was added 2 hours prior to fluorescence measurement. Fluorescence was measured at 560 nm excitation and 590 nm emission. Vehicle control was taken as 100% cell viability."}, "[5]": {"assay": "Photophysical properties (absorption, emission, extinction coefficient, quantum yield)", "format": "physicochemical", "text": "n-Butyllithium in hexanes was purchased from Acros and titrated with diphenylacetic acid, which was recrystallized from toluene. All other reagents were purchased from Sigma Aldrich and used without further purification. Solvents were purchased from either Sigma Aldrich or Fisher Scientific. Anhydrous solvents were purchased from Fisher Scientific and dried by passing through an alumina column of a solvent purification system. Silica gel (230-400 mesh) used for column chromatography was purchased from Silicycle. Thin layer chromatography plates (250 μm thickness) were purchased from Sorbent Technologies. Revered-phase column chromatography was done using a RediSep Rf Gold C18 column on a Teledyne Isco CombiFlash Rf system. High-performance liquid chromatography (HPLC) was performed on a Jasco HPLC system using a Phenomenex column (Luna 5u C18(2) 100A; 250×4.60 mm, 5 micron). UV absorption spectra were obtained on a Jasco V-650 spectrophotometer using a 1 cm path length quartz cuvette. Fluorescence emission spectra were taken on a Horiba Jobin-Yvon FluoroLog using a 1 cm path length fluorescence quartz cuvette. ^1H-NMR and ^13C-NMR were recorded on either a Bruker DMX 500 (500 MHz) or a Bruker AVII 500 (500 MHz). High-resolution mass spectrometry was performed using a Waters LCT Premier XE Mass Spectrometer (model KE 332). […] was performed using a Bruker APEX2-DUO CCD X-ray Diffractometer. Photoreactions were carried out in a Rayonet Photochemical Reactor (model RPR-100). Quantum yield was determined by serial dilution method using coumarine 153 (in ethanol, Φ=0.38) and fluorescein (in NaOH 0.1 M, Φ=0.95) as standards (Yvon, A guide to recording Fluorescence Quantum Yields, http://www.horiba.com/fileadmin/uploads/Scientific/Documents/Fluorescence/quantumyie ldstrad.pdf, accessed Jul. 13, 2014; Brouwer, 2011, Pure Appl. Chem. 83: 2213-2228)"}, "HeLa cells [6]": {"tested_on": "HeLa cells", "assay": "Confocal microscopy of stained live HeLa cells (subcellular localization, cell permeability)", "settings": "confocal microscopy", "quoted_text": "Confocal microscopy was done on a Yokogawa spinning disk inverted microscope with a 100× lens. Each batch of stained cells was imaged by exciting with a 488 nm laser while observing at 503-545 nm (the green overlay images), exciting with a 561 nm laser while observing at 583-650 nm (the red overlay images), and by DIC (the grey images) (FIG. 8).\nA 444 nm excitation was required to image with compounds 2 and 3 (FIG. 18)."}},
  "note": "“Also recorded” adds a separate entry of the source.",
  "data": [
    {"smiles": "C[n+]1cccc2c1/C(=C1\\c3ccccc3Oc3cccnc31)c1ccccc1O2", "note": "(racemic) [11-E/11-Z]", "values": [
      {"measurement": "rate constant, 444/525 channel", "setting": "HeLa cells [1]", "value": 0.060, "unit": "s⁻¹"},
      {"measurement": "rate constant, 488/632 channel", "setting": "HeLa cells [1]", "value": 0.030, "unit": "s⁻¹"},
      {"measurement": "stability of aqueous solution under ambient light", "setting": "[2]", "value": "No decomposition or photoproduct; also recorded: no evidence for decomposition or photoconversion"},
      {"measurement": "Manders' overlap coefficient (first)", "setting": "[3]", "value": "0.98±0.01"},
      {"measurement": "Manders' overlap coefficient (second)", "setting": "[3]", "value": "1.00±0.00"},
      {"measurement": "Spearman correlation with GFP", "setting": "[3]; 80 cells", "value": "0.88±0.02"},
      {"measurement": "cytotoxicity", "setting": "HeLa cells [4]", "value": "very low cytotoxicity"},
      {"measurement": "Stokes shift", "setting": "[5]", "value": 135, "unit": "nm"},
      {"measurement": "Abs λmax", "setting": "[5]; in water", "value": 408, "unit": "nm"},
      {"measurement": "Em λmax", "setting": "[5]; in water", "value": 543, "unit": "nm"},
      {"measurement": "extinction coefficient ε", "setting": "[5]; solvent: water", "value": 11040, "unit": "M⁻¹ cm⁻¹"},
      {"measurement": "quantum yield Φ", "setting": "[5]; solvent: water", "value": 0.021},
      {"measurement": "staining specificity / subcellular localization", "setting": "HeLa cells [6]", "value": "consistent with mitochondrial uptake; also recorded: near exclusive mitochondrial localization"}
    ]}
  ]
}
